What all share (assay type): cell-based
Assay [1] has as its system IL6. Kind of assay: LPS stimulated IL6 inhibition assay in PBMC. As to conditions: Homo sapiens, PBMC, 24 h, human PBMCs, LPS stimulation, compound overnight, IL6 by MSD after 24 hrs; for Dmax: read-out: LPS Stim IL6 inhibition Dmax; for IC50: read-out: LPS stim IL6 inhibition IC50. The protocol: (§1) IL-1β, LPS, or R848 Stimulated IL6 Inhibition and IL-1β Stimulated IL8 Inhibition Assay
(§2) Human PBMC cells were seeded at 2.0×10^6 cells/mL, treated with compound overnight, and dosed with the EC50 concentration of each stimulant (either IL-1B. LPS, or R848) was determined for each donor. After 24 hrs, media was collected and analyzed by MSD for IL6 and/or IL8 levels.

Assay [2] concerns the target T1, IRAK-4 (Homo sapiens, UniProt Q9NWZ3).
T1 sequence (Q9NWZ3 1-460): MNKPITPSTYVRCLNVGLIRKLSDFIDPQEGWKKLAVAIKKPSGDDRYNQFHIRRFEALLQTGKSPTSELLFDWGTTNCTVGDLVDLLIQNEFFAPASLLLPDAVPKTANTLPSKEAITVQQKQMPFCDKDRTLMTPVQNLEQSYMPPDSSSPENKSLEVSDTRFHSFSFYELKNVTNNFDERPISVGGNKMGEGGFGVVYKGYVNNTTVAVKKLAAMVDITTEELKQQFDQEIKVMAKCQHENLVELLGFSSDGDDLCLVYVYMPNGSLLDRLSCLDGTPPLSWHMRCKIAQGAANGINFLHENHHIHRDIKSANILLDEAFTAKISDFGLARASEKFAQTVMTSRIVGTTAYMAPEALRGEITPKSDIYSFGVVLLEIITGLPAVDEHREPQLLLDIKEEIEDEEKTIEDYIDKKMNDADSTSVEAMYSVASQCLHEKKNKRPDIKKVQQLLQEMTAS
Kind of assay: IRAK-4 ELISA, PBMC degradation. As to conditions: treated overnight. More on the design: endogenous in cells; host or cells: PBMC. Summed up:
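Readout: IRAK-4 protein level in cell lysate, sandwich ELISA. Cells: OCI-Ly10 at 1×10^6/ml or PBMC at 2×10^6/ml, compound added same day, overnight incubation.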

The test system of assay [3] is IL6. Nature of the assay: R848 stimulated IL6 inhibition assay in PBMC. As to conditions: PBMC, human PBMCs, R848 stimulation, compound overnight, IL6 by MSD after 24 hrs; for Dmax: Homo sapiens, 24 h, read-out: R848 stim IL6 inhibition Dmax; for IC50: read-out: R848 stim IL6 inhibition IC50. The protocol: as §1, §2

Structures are written as SMILES.

As for `O=C1CCC(N2C(=O)c3ccc(N4CCN(C[C@H]5CC[C@H](N6Cc7cc(NC(=O)c8cnn9cccnc89)c(N8CCN(CC(F)F)CC8)cc7C6=O)CC5)CC4)cc3C2=O)C(=O)N1` (some centres unmarked) [371′], in assay [1], the Dmax is under 70% and the IC50 was 0.01 to 0.05 µM. Besides, in assay [2], the DC50 was 0.001 to 0.005 µM; the Dmax was at least 90%; the “PBMC DC90” value was “B (B represents a DC90 value ≥10.0 nM and <25.0 nM)”. Moreover, in assay [3], the Dmax was at least 90% and the IC50 lay in the range of 0.01 to 0.05 µM.
Turning to `CC(C)Oc1cc2c(cc1NC(=O)c1cnn3cccnc13)CN(C[C@@H](F)C1CN(CC3CCN(c4ccc5c(c4)C(=O)N(C4CCC(=O)NC4=O)C5=O)CC3)C1)C2=O` (some centres unmarked) [Example 19], in assay [1], the Dmax lay in the range of 80 to 90% and the IC50 was 0.01 to 0.05 µM. Further, in assay [2], the DC50 lay in the range of 0.001 to 0.005 µM, the Dmax was 80 to 90% and the “PBMC DC90” value was “A (A represents a DC90 value <10.0 nM)”. Further, in assay [3], the Dmax was at least 90% and the IC50 was 0.01 to 0.05 µM.
As for `CC(C)Oc1cc2c(cc1NC(=O)c1cnn3cccnc13)CN(C1CCN(CC3CCN(c4ccc5c(c4F)CN(C4CCC(=O)NC4=O)C5=O)CC3)CC1)C2=O` (centres unmarked) [Example 41], in assay [1], the Dmax lay within 70 to 80% and the IC50 was in the range of 0.01 to 0.05 µM. Besides, in assay [2], the DC50 is under 0.001 µM, the Dmax lay in the range of 80 to 90% and the “PBMC DC90” value was “A (A represents a DC90 value <10.0 nM)”. In assay [3], the Dmax is at least 90% and the IC50 is under 0.01 µM.
In the case of `O=C1CCC(N2C(=O)c3ccc(N4CCC(CN5CCC(N6Cc7cc(NC(=O)c8cnn9cccnc89)c(OCC(F)F)cc7C6=O)CC5)CC4)cc3C2=O)C(=O)N1` (centres unmarked) [Example 42], in assay [1], the Dmax was under 70% and the IC50 is 0.05 to 0.1 µM. Also, in assay [2], the DC50 lay in the range of 0.001 to 0.005 µM; the Dmax is at least 90%; the “PBMC DC90” value was “B (B represents a DC90 value ≥10.0 nM and <25.0 nM)”. In addition, in assay [3], the Dmax is under 70% and the IC50 is under 0.01 µM.
With `CC(C)Oc1cc2c(cc1NC(=O)c1cnn3cc(Cl)cnc13)CN(C1CCN(CC3CCN(c4ccc5c(c4)C(=O)N(C4CCC(=O)NC4=O)C5=O)CC3)CC1)C2=O` (centres unmarked) [Example 43], in assay [1], the Dmax is under 70% and the IC50 was under 0.01 µM. Further, in assay [2], the DC50 lay within 0.001 to 0.005 µM; the Dmax was at least 90%; the “PBMC DC90” value was “B (B represents a DC90 value ≥10.0 nM and <25.0 nM)”. Moreover, in assay [3], the Dmax lay within 80 to 90% and the IC50 lay in the range of 0.01 to 0.05 µM.
With `CN1CC(Oc2cc3c(cc2NC(=O)c2cnn4cccnc24)CN(C2CCN(CC4CN(c5ccc6c(c5)C(=O)N(C5CCC(=O)NC5=O)C6=O)C4)CC2)C3=O)C1` (centres unmarked) [Example 44], in assay [1], the Dmax fell in the range of 70 to 80% and the IC50 is 0.05 to 0.1 µM. Besides, in assay [2], the DC50 was at least 0.01 µM, the Dmax lay in the range of 80 to 90% and the “PBMC DC90” value was “D (D represents a DC90 value ≥50 nM)”. Also, in assay [3], the Dmax was at least 90% and the IC50 was 0.01 to 0.05 µM.
As to `O=C1CCC(N2Cc3ccc(N4CCC(CN5CCC(N6Cc7cc(NC(=O)c8cnn9cccnc89)c(OCC(F)F)cc7C6=O)CC5)CC4)cc3C2=O)C(=O)N1` (centres unmarked) [Example 45], in assay [1], the Dmax was in the range of 70 to 80% and the IC50 was 0.01 to 0.05 µM. Also, in assay [2], the DC50 lay within 0.001 to 0.005 µM, the Dmax was at least 90% and the “PBMC DC90” value is “A (A represents a DC90 value <10.0 nM)”. Also, in assay [3], the Dmax is at least 90% and the IC50 was under 0.01 µM.
As to `CC(C)Oc1nc2c(cc1NC(=O)c1cnn3cccnc13)CN(C1CCN(CC3CCN(c4ccc5c(c4)C(=O)N(C4CCC(=O)NC4=O)C5=O)CC3)CC1)C2=O` (centres unmarked) [Example 46], in assay [1], the Dmax fell in the range of 70 to 80% and the IC50 lay in the range of 0.01 to 0.05 µM. In assay [2], the DC50 lay within 0.001 to 0.005 µM, the Dmax was at least 90% and the “PBMC DC90” value was “A (A represents a DC90 value <10.0 nM)”. Moreover, in assay [3], the Dmax is at least 90% and the IC50 was in the range of 0.01 to 0.05 µM.
As to `CC(C)Oc1cc2c(cc1NC(=O)c1cnn3cccnc13)CN(C1CCN(CC3CCN(c4ccc5c(c4)C(=O)N([C@@H]4CCC(=O)NC4=O)C5=O)CC3)CC1)C2=O` [Example 47], in assay [1], the Dmax is 80 to 90% and the IC50 was 0.01 to 0.05 µM. In assay [2], the DC50 was 0.001 to 0.005 µM, the Dmax was at least 90% and the “PBMC DC90” value was “A (A represents a DC90 value <10.0 nM)”. For the same compound, in assay [3], the Dmax lay within 80 to 90% and the IC50 was 0.01 to 0.05 µM.
Turning to `CC(C)Oc1cc2c(cc1NC(=O)c1cnn3cccnc13)CN(C1CCN(CC3CCN(c4ccc5c(c4)C(=O)N([C@H]4CCC(=O)NC4=O)C5=O)CC3)CC1)C2=O` [Example 48], in assay [1], the Dmax is 70 to 80% and the IC50 lay within 0.01 to 0.05 µM. In assay [2], the DC50 is under 0.001 µM, the Dmax is at least 90% and the “PBMC DC90” value is recorded as “A (A represents a DC90 value <10.0 nM)”. Besides, in assay [3], the Dmax was at least 90% and the IC50 is 0.01 to 0.05 µM.
With `O=C1CCC(N2Cc3ccc(N4CCC(CN5CCC(N6Cc7cc(NC(=O)c8cnn9cccnc89)c(N8CCC(N9CCC9)CC8)cc7C6=O)CC5)CC4)cc3C2=O)C(=O)N1` (centres unmarked) [Example 49], in assay [1], the Dmax was at least 90% and the IC50 was under 0.01 µM. Moreover, in assay [2], the DC50 was under 0.001 µM, the Dmax is at least 90% and the “PBMC DC90” value is listed as “A (A represents a DC90 value <10.0 nM)”. Besides, in assay [3], the Dmax is at least 90% and the half-inhibitory concentration (IC50) was under 0.01 µM.
Turning to `O=C1CCC(N2Cc3cc(N4CCC(CN5CCC(N6Cc7cc(NC(=O)c8cnn9cccnc89)c(N8CCN(CC(F)F)CC8)cc7C6=O)CC5)CC4)ccc3C2=O)C(=O)N1` (centres unmarked) [Example 50], in assay [1], the Dmax was under 70% and the IC50 was in the range of 0.01 to 0.05 µM. In assay [2], the DC50 is under 0.001 µM, the Dmax is at least 90% and the “PBMC DC90” value is “A (A represents a DC90 value <10.0 nM)”. In addition, in assay [3], the Dmax was at least 90% and the IC50 fell in the range of 0.01 to 0.05 µM.
As to `O=C1CCC(N2Cc3c(ccc(N4CCC(CN5CCC(N6Cc7cc(NC(=O)c8cnn9cccnc89)c(N8CCN(CC(F)F)CC8)cc7C6=O)CC5)CC4)c3F)C2=O)C(=O)N1` (centres unmarked) [Example 51], in assay [1], the Dmax is under 70% and the IC50 was 0.05 to 0.1 µM. In assay [2], the DC50 was under 0.001 µM, the Dmax was at least 90% and the “PBMC DC90” value is recorded as “A (A represents a DC90 value <10.0 nM)”. In assay [3], the Dmax was at least 90% and the IC50 fell in the range of 0.01 to 0.05 µM.
On to `O=C1CCC(N2C(=O)c3ccc(N4CCC(CN5CCC(N6Cc7cc(NC(=O)c8cnn9cccnc89)c(N8CCN(CC(F)F)CC8)cc7C6=O)CC5)CC4)cc3C2=O)C(=O)N1` (centres unmarked) [Example 52], for which, in assay [1], the Dmax was 80 to 90% and the IC50 was 0.01 to 0.05 µM. Besides, in assay [2], the DC50 lay in the range of 0.001 to 0.005 µM, the Dmax is at least 90% and the “PBMC DC90” value is recorded as “A (A represents a DC90 value <10.0 nM)”. Also, in assay [3], the Dmax is 80 to 90% and the IC50 was in the range of 0.01 to 0.05 µM.
With `O=C1CCC(N2C(=O)c3ccc(N4CCC(CN5CCC(N6Cc7cc(NC(=O)c8cnn9cccnc89)c(N8CCN(C9CC(F)(F)C9)CC8)cc7C6=O)CC5)CC4)cc3C2=O)C(=O)N1` (centres unmarked) [Example 53], in assay [1], the Dmax is under 70% and the IC50 was 0.05 to 0.1 µM. For the same compound, in assay [2], the DC50 fell in the range of 0.001 to 0.005 µM; the Dmax is at least 90%; the “PBMC DC90” value is “B (B represents a DC90 value ≥10.0 nM and <25.0 nM)”. In addition, in assay [3], the Dmax is 70 to 80% and the IC50 was in the range of 0.01 to 0.05 µM.
As for `CC(C)Oc1cc2nn(C3CCN(CC4(F)CN(c5ccc6c(c5)C(=O)N(C5CCC(=O)NC5=O)C6=O)C4)CC3)cc2cc1NC(=O)c1cnn2cccnc12` (centres unmarked) [Example 265, N-[2-[1-[[1-[2-(2,6-dioxo-3-piperidyl)-1,3-dioxo-isoindolin-5-yl]-3-fluoro-azetidin-3-yl]methyl]-4-piperidyl]-6-isopropoxy-indazol-5-yl]pyrazolo[1,5-a]pyrimidine-3-carboxamide], in assay [1], the Dmax was at least 90% and the IC50 was 0.01 to 0.05 µM. Also, in assay [2], the DC50 lay in the range of 0.001 to 0.005 µM, the Dmax is at least 90% and the “PBMC DC90” value is “A (A represents a DC90 value <10.0 nM)”.
For the compound `CC(C)Oc1cc2nn(C3CCN(CC4(F)CN(c5cc6c(cn5)C(=O)N(C5CCC(=O)NC5=O)C6=O)C4)CC3)cc2cc1NC(=O)c1cnn2cccnc12` (centres unmarked) [Example 422, N-(2-(1-((1-(2-(2,6-dioxopiperidin-3-yl)-1,3-dioxo-2,3-dihydro-1H-pyrrolo[3,4-c]pyridin-6-yl)-3-fluoroazetidin-3-yl)methyl)piperidin-4-yl)-6-isopropoxy-2H-indazol-5-yl)pyrazolo[1,5-a]pyrimidine-3-carboxamide], in assay [2], the DC50 was 0.001 to 0.005 µM; the Dmax was 70 to 80%; the “PBMC DC90” value was “C (C represents a DC90 value ≥25.0 nM and <50 nM)”.
